Assay results from publication PMC11224403, “Des-acyl ghrelin reduces alcohol intake and alcohol-induced reward in rodents” (Translational Psychiatry, 2024).

Legend:
[1] = test system: monoaminergic neurotransmission in VTA and other brain areas; experiment: Ex vivo monoamine content (HPLC-EC) in brain areas of alcohol-drinking rats after repeated DAG; set-up: species or system Rcc Han Wistar rats
From the text: (§1) Male and female Rcc Han Wistar rats (8–12 weeks old at arrival; Envigo, Horst, Netherlands) were used for the alcohol drinking and locomotor activity experiments as they drink alcohol to intoxicating levels. For in vivo microdialysis studies male Wistar rats (Charles River, Calco, Italy) were used as they display robust dopamine levels in NAc shell after alcohol injection. […] All rodents were allowed to habituate to the animal facility at least one week before they entered an experiment. During housing (20 °C with 50% humidity) the rodents had free access to water and standard chow (Teklad Rodent Diet; Envigo, Madison, WI, USA). These experiments were approved by the Ethics Committee for Animal Experiments (ethical numbers: 1457/18, 3276/18, 1556/18, 3348/20; Gothenburg, Sweden) and followed the ARRIVE guidelines. The sample sizes of each experiment were based on previous experience in which statistical significance has been detected. The person who conducted the experiments, and analyzed the collected data was aware of the treatment allocation. Only preset exclusion criteria were used when analyzing the data obtained in attempts to exclude confounding factors in analyzing data. In the alcohol drinking experiments leaking bottles and low alcohol consumption (<3.0 g/kg for males; <3.5 g/kg for females) were preset exclusion criteria. The preset exclusion criterion in the ex vivo HPLC-EC, ELISA, and recombinant cell line experiments was contamination of the sample. Misplaced probes, technical difficulties, and damages to the surgery area were preset exclusion criteria for the in vivo microdialysis experiment. Intra-cage male aggression was the preset exclusion criterion for the locomotor activity and CPP experiments. To minimize tentative confounding factors, the order of treatments was stratified, with treatments being mixed for each animal cage and for each apparatus used as well as balancing the alcohol intake between future treatment groups. Although each experiment only was performed once, they were separated over different laboratory days with equal data obtained between sessions.
(§2) Individually housed rats had intermittent access to an alcohol (20%) bottle and a water bottle, three 24-h sessions per week, and only water bottles the remaining days. A reversed light/dark cycle was used, and the bottles were changed when the lights went out. First, the rats consumed alcohol for 10 weeks (baseline drinking), where the bottles and food were weighed daily and the body weight weekly. During treatments, the bottles and food were weighed at 4- and/or 24-h and the body weight was measured daily. In the first drinking experiment, the potential of DAG to reduce alcohol consumption was tested and therefore, vehicle or DAG (1 mg/kg) was acutely injected into male (n = 12) or female (n = 12) rats. The second drinking experiment was conducted to establish the effects of lower DAG doses on alcohol intake. Therefore, separate male (n = 18) or female (n = 18) rats, were acutely injected with lower DAG doses (0.5 or 0.25 mg/kg) or vehicle. The third alcohol drinking experiment evaluated the ability of repeated DAG injections to lower alcohol drinking. Therefore, additional male (n = 24) and female (n = 24) rats were injected with either vehicle or DAG (1 mg/kg) at three alcohol-drinking sessions. At the end of the third drinking session, the rats were euthanized and decapitated, and the brains were placed in a brain-slicing matrix. Brain areas central for reward (VTA, NAc shell, NAc core, LDTg, dorsal striatum, hippocampus, paraventricular thalamus, prefrontal cortex, central amygdala) were punched and stored at −80 °C. Each sample was homogenized, and then the monoamine content in the supernatant was analyzed in an HPLC-EC system as described before, allowing tentative determination of brain regions, directly or indirectly, affected by DAG.
The obtained data are normally distributed and with equal variance. […]

[2] = cited from earlier work
From the text: Although DAG altered the neurotransmission of the VTA, the neuronal activi ... || Although DAG reduced alcohol consumption in rats of both sexes, some sex differences were evident. Specifically, after acute DAG treatment the decline in alcohol consumption was evident at the 24-h time point for males and the 4-h time point for females. Moreover, after repeated DAG treatment the decline was similar at each treatment session for males whereas it escalates over time in females.

5HT2A receptor = experiment: Aquoscreen receptor activity assay, 5HT2A; assay type: cell-based, human; conditions: 50 µM DAG in results (8.3 µM in methods); luminescence, triplicates
male and female rats = experiment: Intermittent-access alcohol drinking, repeated DAG injections; assay type: in vivo, Rcc Han Wistar rats; conditions: for 4-h alcohol intake, overall / 24-h alcohol intake, overall: repeated DAG 1 mg/kg IP at three drinking sessions
From the text: as §1
Alcohol (95%; Solveco AB, Stockholm, Sweden) was either diluted to a 20% solution using tap water (drinking experiment) or to a 15% (w/v) solution with 0.9% NaCl. Alcohol was in the behavioral and neurochemical tests injected (intraperitoneally, IP) 5 min before the test. A dose of 1.75 g/kg was used in male mice as it causes robust locomotor stimulation and induces a CPP [37–39], and 2 g/kg was used for rats as it elevates the dopamine levels in NAc shell. DAG (Tocrise Bioscience, Bristol, UK) was dissolved in 0.9% NaCl in doses (0.25–2 mg/kg) known to reduce food intake and DAG was injected IP).
as §2, with “At the end of the third drinking session, the rats were euthanized and decapitated, and the brains were placed in a brain-slicing matrix. Brain areas central for reward (VTA, NAc shell, NAc core, LDTg, dorsal striatum, hippocampus, paraventricular thalamus, prefrontal cortex, central amygdala) were punched and stored at −80 °C. Each sample was homogenized, and then the monoamine content in the supernatant was analyzed in an HPLC-EC system as described before, allowing tentative determination of brain regions, directly or indirectly, affected by DAG.” left out

[3] = alcohol-drinking female rats, repeated DAG n = 7 vs vehicle n = 9
[4] = alcohol-drinking male rats, repeated DAG n = 8 vs vehicle n = 7
[5] = female rats, repeated DAG 1 mg/kg IP
[6] = female rats, n = 7 vs vehicle n = 9
[7] = female rats, repeated DAG 1 mg/kg IP, drinking session 2, n = 7 vs vehicle n = 9
[8] = female rats, repeated DAG 1 mg/kg IP, n = 7 vs vehicle n = 9
[9] = male rats, repeated DAG 1 mg/kg IP
[10] = male rats, n = 8 vs vehicle n = 8

For “des-acyl ghrelin (GSSFLSPEHQRVQQRKESKKPPAKLQPR; Ghrelin-28 non-acylated; UniProt Q9UBU3 24-51, looked up) [DAG, non-octanoylated form of ghrelin; purchased from Tocris (printed Tocrise Bioscience), dissolved in 0.9% NaCl]”, the “ex vivo DOPAC level, VTA” value [1, 3] was “did not change the levels of D DOPAC (t14 = 0.41, P = 0.6904)”, the “ex vivo HVA level, VTA” value [1, 3] was “did not change the levels of D DOPAC (t14 = 0.41, P = 0.6904), E HVA (t14 = 0.66, P = 0.5196)” and the “ex vivo dopamine level, VTA” value [1, 3] was “did not change the levels of D DOPAC (t14 = 0.41, P = 0.6904), E HVA (t14 = 0.66, P = 0.5196), or F dopamine (t14 = 0.12, P = 0.9080)”. For the same substance, the “dopamine turnover, 5-HIAA, serotonin and serotonin turnover, VTA” value ([1]; alcohol-drinking male or female rats, repeated DAG) was “neither affected the dopamine turnover, 5-hydroxy indole acetic acid (5-HIAA), serotonin, nor serotonin turnover”, the “ex vivo noradrenaline level, VTA” value ([1]; alcohol-drinking male rats, repeated DAG) was “tended to elevate the ex vivo noradrenaline levels in this area of male rats (Supplementary Fig. 4E, P = 0.0819)” and the “ex vivo DOPAC level, VTA” value [1, 4] was “increased the ex vivo levels of A DOPAC (t13 = 2.94, P = 0.0116)”. For the same substance, the “ex vivo HVA level, VTA” value [1, 4] was “increased the ex vivo levels of A DOPAC (t13 = 2.94, P = 0.0116) and B HVA (t13 = 3.00, P = 0.0102)”, the “ex vivo dopamine level, VTA” value [1, 4] was “tended to elevate the dopamine levels (t13 = 1.72, P = 0.1091)” and the “monoaminergic neurotransmission in other brain areas” value ([1]; males and females, repeated DAG, central amygdala, hippocampus, laterodorsal tegmental area, NAc core and shell, prefrontal cortex, paraventricular thalamus, striatum, data not shown) was “Neither in males nor females, DAG altered the monoaminergic neurotransmission”. For the same substance, the elimination pathway ([2]; ref [63], [64]) was “renal clearance has been suggested to be a major pathway for the elimination of DAG”, the brain entry ([2]; systemic DAG, ref [52]) was “enters the brain through non-saturable transmembrane diffusion” and the “activation of 5HT2A” value (5HT2A receptor) was “no activation”. For the same substance, the alcohol preference (male and female rats; [5]) was “remained unaltered by repeated injections of DAG”, the body weight (male and female rats; [5]) was “not affected by repeated DAG treatment” and the total fluid intake (male and female rats; [5]) was “remained unaltered by repeated injections of DAG”. The water intake (male and female rats; [5]) was “remained unaltered by repeated injections of DAG”, the “4-h alcohol intake, overall” value (male and female rats; [6]) was “overall reduced the alcohol consumption at the 4-h time point (treatment F1,14 = 9.17, P = 0.0090 **; time F2,28 = 12.63, P = 0.0001; interaction F2,28 = 1.02, P = 0.3754)” and the “24-h alcohol intake, overall” value (male and female rats; [6]) was “An overall decline in 24-h alcohol intake was observed (treatment F1,14 = 14.72, P = 0.0018 **; time F2,28 = 2.91, P = 0.0711; interaction F2,28 = 6.43, P = 0.0051 ##)”. For the same substance, the “4-h alcohol intake, session 2” value (male and female rats; [7]) was “a decrease specifically evident at alcohol drinking session 2 (P = 0.0158)”, the “4-h food intake, session 2” value (male and female rats; [7]) was “The lowered food intake by DAG was found at alcohol drinking session 2 (P = 0.0475)” and the “4-h food intake, overall” value (male and female rats; [8]) was “A lowered food intake by repeated DAG injections was observed at the 4-h (treatment F1,14 = 4.80, P = 0.0460 *; time F2,28 = 4.79, P < 0.0001; interaction F2,28 = 0.57, P = 0.5742)”. The 24-h food intake (male and female rats; [8]) was “not at the 24-h time point (treatment F1,14 = 0.53, P = 0.4798; time F2,28 = 1.68, P = 0.2049; interaction F2,28 = 0.19, P = 0.8269)”, the body weight (male and female rats; [9]) was “unchanged after repeated DAG injections” and the preference for alcohol (male and female rats; [9]) was “unchanged after repeated DAG injections”. For the same substance, the water intake (male and female rats; [9]) was “unchanged after repeated DAG injections”, the “4-h alcohol intake, overall” value (male and female rats; [10]) was “overall decrease in alcohol intake at the A 4-h time point (treatment F1,14 = 5.12, P = 0.0401 *; time F2,28 = 1.87, P = 0.1754; interaction F2,28 = 0.59, P = 0.5622)” and the “24-h alcohol intake, overall” value (male and female rats; [10]) was “An overall reduction in alcohol intake was observed after DAG injections (treatment F1,14 = 1.96, P = 0.1836; time F2,28 = 3.44, P = 0.0460; interaction F2,28 = 4.34, P = 0.0228 #)”. The “total fluid intake, 24-h” value (male and female rats; male rats, repeated DAG 1 mg/kg IP, 24 h) was “overall decline in the total fluid intake at the 24-h time point (P = 0.0304)”, the “24-h alcohol intake, session 2” value (male and female rats; male rats, repeated DAG 1 mg/kg IP, drinking session 2, n = 8 per group) was “specifically at alcohol drinking session 2 (P = 0.0324)” and the “4-h alcohol intake, session 3” value (male and female rats; male rats, repeated DAG 1 mg/kg IP, drinking session 3, n = 8 per group) was “specifically lower after DAG at alcohol drinking session 3 (P = 0.0256)”. The 4-h food intake (male and female rats; male rats, repeated DAG 1 mg/kg IP, n = 8 per group (4-h statistics)) was “did not alter the food intake at any time point (4-h: treatment F1,14 = 1.41, P = 0.2546; time F2,28 = 6.86, P = 0.0045; interaction F2,28 = 0.05, P = 0.9518” and the 24-h food intake (male and female rats; male rats, repeated DAG 1 mg/kg IP, n = 8 per group (24-h statistics)) was 24-h: treatment F1,14 = 0.55, P = 0.4727; time F2,28 = 13.79, P < 0.0001; interaction F2,28 = 1.03, P = 0.3707.
